In US9296741B2, “Bromodomain inhibitors” (priority 2012, dated 2016):
Like-named read-outs stand apart in the source and are kept apart here. Marks after values point to notes of the source that are not given here.

Key:
[1] = system: OPM-2 human multiple myeloma xenograft tumors; assay: animal or person; details: Mus musculus; for change in vivo at 0.5 mg/kg / inhibition in vivo at 0.5 mg/kg: 0.5 mg/kg/day; for change in vivo at 1 mg/kg / inhibition in vivo at 1 mg/kg: 1 mg/kg/day
[2] = system: rat collagen induced arthritis (rCIA) paw swelling; assay: animal or person; details: po, read-out: ED50, inhibition of inflammation in the arthritic paw
[3] = Human liver microsome stability assay; type: in vitro ADME; details: both sexes, human, microsomes, pH 7.4
[4] = system: LPS induced IL-6 production; assay: LPS (lipopolysaccharide) induced IL-6 production mouse assay; type: in vivo; details: Mus musculus, read-out: Inhibition of LPS induced IL-6 production in Mice, % inhibition at 3 mg/kg; 3 mg/kg oral, 1 h before LPS; serum IL-6 2 h after LPS
[5] = molecular target: human BRD4 first bromodomain (BDI_K57-E168) (Homo sapiens (Human), UniProt O60885); assay: TR-FRET bromodomain binding assay, BRD4 first bromodomain
[6] = system: MX-1 human breast cancer xenograft tumors; assay: Xenograft tumor growth inhibition assay, MX-1; type: in vivo, mouse
[7] = system: rat collagen induced arthritis (rCIA) paw swelling
[8] = Mouse liver microsome stability assay; type: in vitro ADME; details: male, CD1, mouse, microsomes, pH 7.4
[9] = system: HT1080 human cancer cell xenograft; assay: Xenograft efficacy study, HT1080; type: in vivo, mouse; details: PO, QDx14, vehicle H
[10] = system: SKM1 human cancer cell xenograft; assay: Xenograft efficacy study, SKM1; type: in vivo, mouse; details: PO, QDx21, vehicle A
[11] = Rat liver microsome stability assay; type: in vitro ADME; details: rat liver microsomes (male Sprague-Dawley), 0.5 μM test compound, 0.25 mg/mL microsomal protein, pH 7.4, 37° C.; read-out: Stability in rat liver microsomes (t1/2 in minutes)
[12] = system: breast cancer cell line MX-1; assay: MX-1 cell line proliferation assay; type: cell-based, human; details: Homo sapiens, MX1, 72 h; MX-1 cells, 3-day proliferation, Cell Titer Glo; read-out: Cellular proliferation: EC50
[13] = system: MV4-11 human cancer cell xenograft; assay: Xenograft efficacy study, MV4-11; type: in vivo, mouse; details: PO, QDx21, vehicle D
[14] = OPM-2, po, read-out: % TGI (tumor growth inhibition), OPM-2, PO, QDx21, vehicle A
[15] = MX-1, 0.3 mg/kg/day, PO, QD, vehicle F
[16] = MX-1, 1 mg/kg/day, PO, QD, vehicle F
[17] = MX-1, 3 mg/kg/day, PO, QD, vehicle F

half-life at 0.5 μM [3]: > 2 h
Ki [5]: 3.5 nM
maximum plasma concentration at the ED50 ([7]; female, Lewis, rat, in vivo): 0.0068 µg/mL
maximum plasma concentration at the ED80 ([7]; female, Lewis, rat, in vivo): 0.0223 µg/mL
half-life at 0.5 μM [8]: 0.683 h
% removed from study ([9]; 0.3 mg/kg/day): 30%
% removed from study ([9]; 1 mg/kg/day): 10%
% removed from study ([9]; 3 mg/kg/day): 10%
% removed from study ([10]; 0.2 mg/kg/day): 0%
% removed from study ([10]; 2 mg/kg/day): 0%
half-life at 0.5 μM [11]: > 2 h
EC50 [12]: 17.4 nM
% removed from study ([13]; 0.2 mg/kg/day): 0%
% removed from study ([13]; 2 mg/kg/day): 0%
Structure (SMILES): CCS(=O)(=O)Nc1ccc(Oc2ccc(F)cc2F)c(-c2cn(C)c(=O)c3[nH]ccc23)c1 [Example 36, N-[4-(2,4-difluorophenoxy)-3-(6-methyl-7-oxo-6,7-dihydro-1H-pyrrolo[2,3-c]pyridin-4-yl)phenyl]ethanesulfonamide]
change in vivo at 0.5 mg/kg ([1]; OPM-2, ip, read-out: % TGD (tumor growth delay), OPM-2, IP, QDx21, vehicle F): 52%
change in vivo at 1 mg/kg ([1]; OPM-2, ip, read-out: % TGD (tumor growth delay), OPM-2, IP, Q4DX3, vehicle F): 80%
inhibition in vivo at 0.5 mg/kg ([1]; OPM-2, ip, read-out: % TGI (tumor growth inhibition), OPM-2, IP, QDx21, vehicle F): 49%
inhibition in vivo at 1 mg/kg ([1]; OPM-2, ip, read-out: % TGI (tumor growth inhibition), OPM-2, IP, Q4DX3, vehicle F): 61%
inhibition in vivo at 1 mg/kg ([1]; OPM-2, iv, read-out: % TGI (tumor growth inhibition), OPM-2, IV, Q4Dx3, vehicle C): 69%
inhibition in vivo at 3 mg/kg ([1]; OPM-2, po, 744 h, read-out: % TGI (tumor growth inhibition), OPM-2 xenograft, 3 mg/kg/day PO, QDx14, based on day 31): 90%
change in vivo at 0.5 mg/kg ([1]; OPM-2, po, read-out: % TGD (tumor growth delay), OPM-2, PO, QDx21, vehicle A): 101%
change in vivo at 1 mg/kg ([1]; OPM-2, po, read-out: % TGD (tumor growth delay), OPM-2, PO, BIDx21, vehicle A): 140%
change in vivo at 3 mg/kg ([1]; OPM-2, po, read-out: % TGD (tumor growth delay), OPM-2, 3 mg/kg/day, PO, QDx14, vehicle A): 21%
change in vivo at 3 mg/kg ([1]; OPM-2, po, read-out: % TGD (tumor growth delay), OPM-2, 3 mg/kg/day, PO, QDx21, vehicle A): 131%
change in vivo at 6 mg/kg ([1]; OPM-2, po, read-out: % TGD (tumor growth delay), OPM-2, 6 mg/kg/day, PO, Q2D x21 d, vehicle A): 84%
change in vivo at 7 mg/kg ([1]; OPM-2, po, read-out: % TGD (tumor growth delay), OPM-2, 7 mg/kg/day, PO, QD(3 on 4 off)x3, vehicle A): 97%
change in vivo at 10.5 mg/kg ([1]; OPM-2, po, read-out: % TGD (tumor growth delay), OPM-2, 10.5 mg/kg/day, PO, QD(2 on 5 off)x3, vehicle A): 94%
change in vivo at 3 mg/kg ([1]; OPM-2, po, read-out: % TGD (tumor growth delay), OPM-2 xenograft, 3 mg/kg/day PO, QDx14, endpoint of 1000 mm^3): 78%
inhibition in vivo at 0.5 mg/kg [1, 14]: 75%
inhibition in vivo at 1 mg/kg ([1]; OPM-2, po, read-out: % TGI (tumor growth inhibition), OPM-2, PO, BIDx21, vehicle A): 74%
inhibition in vivo at 1 mg/kg [1, 14]: 75%
inhibition in vivo at 3 mg/kg ([1]; OPM-2, po, read-out: % TGI (tumor growth inhibition), OPM-2, 3 mg/kg/day, PO, QDx14, vehicle A): 90%
inhibition in vivo at 3 mg/kg ([1]; OPM-2, po, read-out: % TGI (tumor growth inhibition), OPM-2, 3 mg/kg/day, PO, QDx21, vehicle A): 88%
inhibition in vivo at 6 mg/kg ([1]; OPM-2, po, read-out: % TGI (tumor growth inhibition), OPM-2, 6 mg/kg/day, PO, Q2D x21 d, vehicle A): 82%
inhibition in vivo at 7 mg/kg ([1]; OPM-2, po, read-out: % TGI (tumor growth inhibition), OPM-2, 7 mg/kg/day, PO, QD(3 on 4 off)x3, vehicle A): 81%
inhibition in vivo at 10.5 mg/kg ([1]; OPM-2, po, read-out: % TGI (tumor growth inhibition), OPM-2, 10.5 mg/kg/day, PO, QD(2 on 5 off)x3, vehicle A): 75%
ED50 [2]: 0.21 mg/kg
inhibition in vivo at 3 mg/kg [4]: 78%
% TGD (tumor growth delay) [6, 15]: 40%
% TGI (tumor growth inhibition) [6, 15]: 43** %
% removed from study [6, 15]: 0%
% TGI (tumor growth inhibition) [6, 16]: 60*** %
% removed from study [6, 16]: 0%
% TGI (tumor growth inhibition) [6, 17]: 76*** %
% removed from study [6, 17]: 0%
% TGI (tumor growth inhibition) ([6]; MX-1 xenograft, 0.3 mg/kg/day PO, QDx14, based on day 27): 43** %
% TGI (tumor growth inhibition) ([6]; MX-1 xenograft, 1 mg/kg/day PO, QDx14, based on day 27): 60*** %
% TGI (tumor growth inhibition) ([6]; MX-1 xenograft, 3 mg/kg/day PO, QDx14, based on day 27): 76*** %
AUC of Paw Swelling, MEAN ([7]; rCIA, dosed at 0.03 mg/kg orally once daily day 10-17): 4.19 mL·days
AUC of Paw Swelling, MEAN ([7]; rCIA, dosed at 0.1 mg/kg orally once daily day 10-17): 3.66* ml-day
AUC of Paw Swelling, MEAN ([7]; rCIA, dosed at 0.3 mg/kg orally once daily day 10-17): 1.84** ml-day
AUC of Paw Swelling, MEAN ([7]; rCIA, dosed at 1.0 mg/kg orally once daily day 10-17): 0.70** ml-day
ED80, inhibition of inflammation in the arthritic paw ([7]; rCIA, oral once daily): 0.69 mg/kg
% TGD (tumor growth delay) ([9]; 0.3 mg/kg/day): −1%
% TGI (tumor growth inhibition) ([9]; 0.3 mg/kg/day): 26%
% TGD (tumor growth delay) ([9]; 1 mg/kg/day): 3%
% TGI (tumor growth inhibition) ([9]; 1 mg/kg/day): 41* %
% TGD (tumor growth delay) ([9]; 3 mg/kg/day): 46*** %
% TGI (tumor growth inhibition) ([9]; 3 mg/kg/day): 47** %
% TGD (tumor growth delay) ([10]; 0.2 mg/kg/day): 93%
% TGI (tumor growth inhibition) ([10]; 0.2 mg/kg/day): 41* %
% TGD (tumor growth delay) ([10]; 2 mg/kg/day): 721*** %
% TGI (tumor growth inhibition) ([10]; 2 mg/kg/day): 86** %
% TGD (tumor growth delay) ([13]; 0.2 mg/kg/day): 16*** %
% TGI (tumor growth inhibition) ([13]; 0.2 mg/kg/day): 22* %
% TGD (tumor growth delay) ([13]; 2 mg/kg/day): 94* %
% TGI (tumor growth inhibition) ([13]; 2 mg/kg/day): 81*** %
